# Test results from article PMC10850047, “Exploring the impact of PEGylation on pharmacokinetics: a size-dependent effect of polyethylene glycol on prostate-specific membrane antigen inhibitors” (EJNMMI Research, 2024).
# Key:
# [1] = tested on: LNCaP tumor-bearing NOD/SCID mice; assay: Biodistribution in LNCaP tumor model; conditions: for Blood uptake / Bone uptake / Brain uptake / Heart uptake / Kidney uptake / Liver uptake / Lung uptake / Muscle uptake / Salivary uptake / Small int (small intestine) uptake / Spleen uptake / Stomach uptake / Tumor uptake: mean ± SD (n=5)
# PSMA = target: T1, PSMA (Homo sapiens, UniProt Q04609); conditions: LNCaP cells, competition with [68Ga]Ga-PSMA-11; cited from earlier work
# T1 construct: host or cells: LNCaP
# LNCaP cells = assay: Uptake and internalization in LNCaP cells; type: cell-based, human; conditions: 120 min incubation, normalized to 10^6 cells
# Method: LNCaP prostate cancer cell line obtained from the American Type Culture Collection (ATCC, Manassas, VA) was used for cell affinity studies. […] The supernatant was disposed, and the cell pellet was resuspended in a culture medium, and LNCaP cells (150,000 cells/well) were counted with a hemocytometer and seeded in poly-L-lysine-coated 24-well plates used in cell binding studies. The cells were then allowed to grow at 37 °C for 48 h. PC3-PIP cells provided by Professor Xiaoyuan Chen (Singapore) require additional Puromycin (2 µg/ml) in addition to the appealed culture conditions.
# [2] = design: method as in PMID 36696174; conditions: at 2 h; cited from earlier work
# T1 sequence (Q04609 whole entry): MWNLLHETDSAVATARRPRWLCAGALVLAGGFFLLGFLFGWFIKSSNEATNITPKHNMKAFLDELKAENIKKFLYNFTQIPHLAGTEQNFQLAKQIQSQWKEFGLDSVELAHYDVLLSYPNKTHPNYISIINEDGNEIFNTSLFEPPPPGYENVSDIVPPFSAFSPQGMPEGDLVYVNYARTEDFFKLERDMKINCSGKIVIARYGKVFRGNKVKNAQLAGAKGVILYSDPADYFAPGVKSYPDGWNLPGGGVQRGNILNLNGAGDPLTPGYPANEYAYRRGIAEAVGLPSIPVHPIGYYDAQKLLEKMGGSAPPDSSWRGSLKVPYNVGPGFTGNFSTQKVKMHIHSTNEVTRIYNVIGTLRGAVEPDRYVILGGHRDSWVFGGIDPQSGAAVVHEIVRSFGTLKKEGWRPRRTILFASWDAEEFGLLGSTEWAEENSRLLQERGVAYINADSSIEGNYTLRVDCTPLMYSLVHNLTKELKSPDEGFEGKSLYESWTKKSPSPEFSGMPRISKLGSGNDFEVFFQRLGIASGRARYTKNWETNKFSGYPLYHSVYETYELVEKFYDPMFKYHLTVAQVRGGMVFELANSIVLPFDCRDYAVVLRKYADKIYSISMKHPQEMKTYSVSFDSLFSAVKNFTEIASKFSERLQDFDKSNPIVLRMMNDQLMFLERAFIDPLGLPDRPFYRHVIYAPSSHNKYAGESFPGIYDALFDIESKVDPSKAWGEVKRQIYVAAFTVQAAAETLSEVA
smiles,measurement,setting,value
O=C([O-])CN1CCN(CC(=O)[O-])CCN(CC(=O)NCCCCCN(CCCC[C@H](NC(=O)N[C@@H](CCC(=O)O)C(=O)O)C(=O)O)C(=O)C2c3ccccc3-c3ccccc32)CCN(CC(=O)[O-])CC1.[68Ga+3] [[^68Ga]Ga-Flu-1],Tumor/Blood ratio,[1]; 30 min,5.94±1.41
same,Tumor/Heart ratio,[1]; 30 min,17.48±3.23
same,Tumor/Kidney ratio,[1]; 30 min,0.14±0.12
same,Tumor/Liver ratio,[1]; 30 min,15.57±2.89
same,Tumor/Salivary ratio,[1]; 30 min,5.63±1.11
same,Blood uptake,[1]; 30 min p.i.,5.53±2.11 %ID/g
same,Bone uptake,[1]; 30 min p.i.,0.66±0.22 %ID/g
same,Brain uptake,[1]; 30 min p.i.,0.18±0.10 %ID/g
same,Heart uptake,[1]; 30 min p.i.,1.88±0.46 %ID/g
same,Kidney uptake,[1]; 30 min p.i.,240.00 ± 34.68 %ID/g
same,Liver uptake,[1]; 30 min p.i.,2.11±0.52 %ID/g
same,Lung uptake,[1]; 30 min p.i.,5.77±2.01 %ID/g
same,Muscle uptake,[1]; 30 min p.i.,0.93±0.34 %ID/g
same,Salivary uptake,[1]; 30 min p.i.,5.84±3.65 %ID/g
same,Small int (small intestine) uptake,[1]; 30 min p.i.,2.52±0.60 %ID/g
same,Spleen uptake,[1]; 30 min p.i.,9.45±5.92 %ID/g
same,Stomach uptake,[1]; 30 min p.i.,1.84±0.31 %ID/g
same,Tumor uptake,[1]; 30 min p.i.,32.86 ± 12.02 %ID/g
same,Tumor/Blood ratio,[1]; 60 min,11.1±1.97
same,Tumor/Heart ratio,[1]; 60 min,44.13±4.22
same,Tumor/Kidney ratio,[1]; 60 min,0.22±0.21
same,Tumor/Liver ratio,[1]; 60 min,33.17±3.09
same,Tumor/Salivary ratio,[1]; 60 min,17.24±3.54
same,Blood uptake,[1]; 60 min p.i.,4.69±2.33 %ID/g
same,Bone uptake,[1]; 60 min p.i.,0.29±0.18 %ID/g
same,Brain uptake,[1]; 60 min p.i.,0.11±0.10 %ID/g
same,Heart uptake,[1]; 60 min p.i.,1.18±0.36 %ID/g
same,Kidney uptake,[1]; 60 min p.i.,240.01±31.08 %ID/g
same,Liver uptake,[1]; 60 min p.i.,1.57±0.60 %ID/g
same,Lung uptake,[1]; 60 min p.i.,3.27±0.84 %ID/g
same,Muscle uptake,[1]; 60 min p.i.,0.44±0.25 %ID/g
same,Salivary uptake,[1]; 60 min p.i.,3.02±1.27 %ID/g
same,Small int (small intestine) uptake,[1]; 60 min p.i.,1.89±1.10 %ID/g
same,Spleen uptake,[1]; 60 min p.i.,7.25±3.39 %ID/g
same,Stomach uptake,[1]; 60 min p.i.,0.86±0.11 %ID/g
same,Tumor uptake,[1]; 60 min p.i.,52.07 ± 14.83 %ID/g
same,Tumor/Blood ratio,[1]; 120 min,13.07±2.56
same,Tumor/Heart ratio,[1]; 120 min,69.16±5.69
same,Tumor/Kidney ratio,[1]; 120 min,0.31±0.21
same,Tumor/Liver ratio,[1]; 120 min,37.14±3.65
same,Tumor/Salivary ratio,[1]; 120 min,27.47±4.33
same,Blood uptake,[1]; 120 min p.i.,3.07±2.7 %ID/g
same,Bone uptake,[1]; 120 min p.i.,0.34±0.21 %ID/g
same,Brain uptake,[1]; 120 min p.i.,0.06±0.04 %ID/g
same,Heart uptake,[1]; 120 min p.i.,0.58±0.28 %ID/g
same,Kidney uptake,[1]; 120 min p.i.,127.83 ± 27.94 %ID/g
same,Liver uptake,[1]; 120 min p.i.,1.08±0.71 %ID/g
same,Lung uptake,[1]; 120 min p.i.,1.23±0.47 %ID/g
same,Muscle uptake,[1]; 120 min p.i.,0.19±0.08 %ID/g
same,Salivary uptake,[1]; 120 min p.i.,1.46±1.05 %ID/g
same,Small int (small intestine) uptake,[1]; 120 min p.i.,0.46±0.25 %ID/g
same,Spleen uptake,[1]; 120 min p.i.,2.38±1.75 %ID/g
same,Stomach uptake,[1]; 120 min p.i.,0.42±0.17 %ID/g
same,Tumor uptake,[1]; 120 min p.i.,40.11 ± 9.24 %ID/g
same,IC50,PSMA,9.62 ± 1.7 nM
same,Internalization in LNCaP cells,LNCaP cells,21.3 ± 0.13%
same,Uptake in LNCaP cells,LNCaP cells,34.57 ± 4.14%
same,"Kidney uptake, folds greater than that in the tumor",[2],3 folds
